Reference: PMC10463303 (Veterinary Research, 2023)
Converted amounts (≈) assume the structure as drawn. Peptide text beside a SMILES is read from it.

Experiments:
Format in all cases: cell-based, Streptococcus suis serotype 2
Settings in all cases: 18 h
[1] = tested on: SS2 strains including SC19 and P1/7
Experimental: (§1) Tryptic soy broth (TSB; Beijing Land Bridge Technology Co., ltd, China) with 10% fetal bovine serum (FBS; Zhejiang Tianhang Biotechnology Co., ltd, China) were used as bacterial growth media for antimicrobial activity assays and tryptic soy agar (TSA; Beijing Land Bridge Technology Co., ltd, China) plates containing 10% FBS were used for the colony counting assay. Bacteria were cultured at 37 °C for 18 h in TSB or TSA agar plates.
(§2) Antimicrobial activity of cathelicidins was performed using a broth microdilution assay. Briefly, bacteria were maintained in TSB medium with 10% FBS at 37 °C and grown to mid-logarithmic growth phase before being tested. Then, 50 μL of peptides (0 to 80 μM) in triplicate were mixed with an equal volume of bacterial suspension (2 × 10^6 CFU/mL) in 96-well plates and incubated for 18 h at 37 ℃. The minimum inhibitory concentration (MIC) was defined as the lowest concentration of ones at which there was no visible bacteria growth. The minimum bactericidal concentration (MBC) was determined by colony counting. Fifty microliter mixed medium were removed from wells in which visible bacteria growth was not observed and then were plated out on TSA plates. After overnight culture at 37 °C, survival bacteria were counted.

SS2 strain SC19 = tested on: SS2 strain SC19
Experimental: as §1, §2

SS2 strain P1/7 = experiment: Antimicrobial activity assay (broth microdilution MIC, MBC by colony counting)
Experimental: as §1, §2

[2] = broth microdilution, TSB + 10% FBS, peptides 0 to 80 μM in triplicate, bacterial suspension 2 × 10^6 CFU/mL, 37 °C, no visible growth

Structure (SMILES)	MIC (anti-SS2 activity) [1] [µM]	MBC (anti-SS2 activity) [1] [µM]	MBC toward SC19 (SS2 strain SC19) [µM]	MBC toward P1/7 (SS2 strain P1/7) [µM]	MIC toward SC19 (SS2 strain SC19; [2]) [µM]	MIC toward P1/7 (SS2 strain P1/7; [2]) [µM]
CC[C@H](C)[C@H](NC(=O)CNC(=O)[C@H](C)NC(=O)[C@H](C)NC(=O)[C@@H](NC(=O)[C@@H](NC(=O)[C@H](CC(N)=O)NC(=O)[C@@H](NC(=O)[C@H](C)NC(=O)[C@@H](NC(=O)[C@@H]1CCCN1C(=O)[C@@H](NC(=O)[C@H](CC(C)C)NC(=O)[C@@H]1CCCN1C(=O)[C@H](Cc1c[nH]c2ccccc12)NC(=O)[C@H](Cc1ccccc1)NC(=O)[C@H](CCCNC(=N)N)NC(=O)[C@H](CCCCN)NC(=O)[C@@H](NC(=O)[C@@H](N)CCCNC(=N)N)C(C)C)C(C)C)C(C)C)[C@@H](C)CC)[C@@H](C)O)C(C)C)C(=O)N[C@@H](CC(N)=O)C(=O)N[C@@H](CC(C)C)C(=O)N[C@@H](Cc1ccc(O)cc1)C(=O)N[C@@H](CCCCN)C(=O)N[C@@H](C)C(=O)N[C@H](C(=O)N[C@@H](CCCNC(=N)N)C(=O)N[C@@H](CCCNC(=N)N)C(=O)N[C@@H](CCCCN)C(=O)O)[C@@H](C)CC [CATH-3] (H-RVKRFWPLVPVAINTVAAGINLYKAIRRK-OH)	10 to 20	10 to 20	20 (≈ 67 µg/mL)	10 (≈ 33.5 µg/mL)		
CC[C@H](C)[C@H](NC(=O)[C@H](CCCCN)NC(=O)[C@H](CCCNC(=N)N)NC(=O)[C@H](CC(C)C)NC(=O)[C@H](Cc1ccccc1)NC(=O)[C@H](CCCNC(=N)N)NC(=O)CNC(=O)[C@H](Cc1ccccc1)NC(=O)[C@@H](N)CCCNC(=N)N)C(=O)N[C@@H](CCCNC(=N)N)C(=O)N[C@@H](CCCNC(=N)N)C(=O)N[C@@H](Cc1ccccc1)C(=O)N[C@@H](CCCNC(=N)N)C(=O)N1CCC[C@H]1C(=O)N[C@@H](CCCCN)C(=O)N[C@H](C(=O)N[C@H](C(=O)N[C@H](C(=O)N[C@H](C(=O)N[C@H](C(=O)N[C@@H](CCC(N)=O)C(=O)NCC(=O)N[C@@H](CO)C(=O)N[C@@H](C)C(=O)N[C@@H](CCCNC(=N)N)C(=O)N[C@@H](Cc1ccccc1)C(=O)O)[C@@H](C)CC)[C@@H](C)O)[C@@H](C)CC)[C@@H](C)O)C(C)C [CATH-2] (H-RFGRFLRKIRRFRPKVTITIQGSARF-OH)	10 to 20	10 to 20	20 (≈ 64.2 µg/mL)	10 (≈ 32.1 µg/mL)		
CC[C@H](C)[C@H](NC(=O)[C@H](CCCCN)NC(=O)[C@H](CCC(=O)O)NC(=O)CNC(=O)CNC(=O)[C@H](CCCCN)NC(=O)[C@H](CCCNC(=N)N)NC(=O)[C@H](CC(C)C)NC(=O)[C@H](CC(C)C)NC(=O)CN)C(=O)NCC(=O)N[C@@H](CCC(=O)O)C(=O)N[C@@H](CCCCN)C(=O)N[C@@H](CC(C)C)C(=O)N[C@@H](CCCCN)C(=O)N[C@@H](CCCCN)C(=O)N[C@H](C(=O)NCC(=O)N[C@@H](CCC(N)=O)C(=O)N[C@@H](CCCCN)C(=O)N[C@H](C(=O)N[C@@H](CCCCN)C(=O)N[C@@H](CC(N)=O)C(=O)N[C@@H](Cc1ccccc1)C(=O)N[C@@H](Cc1ccccc1)C(=O)N[C@@H](CCC(N)=O)C(=O)N[C@@H](CCCCN)C(=O)N[C@@H](CC(C)C)C(=O)N[C@H](C(=O)N1CCC[C@H]1C(=O)N[C@@H](CCC(N)=O)C(=O)N1CCC[C@H]1C(=O)N[C@@H](CCC(=O)O)C(=O)N[C@@H](CCC(N)=O)C(=O)O)C(C)C)[C@@H](C)CC)[C@@H](C)CC [CRAMP] (H-GLLRKGGEKIGEKLKKIGQKIKNFFQKLVPQPEQ-OH)	> 40	> 40	> 40	> 40	40	40
CC[C@H](C)[C@H](NC(=O)CNC(=O)[C@H](CC(N)=O)NC(=O)[C@H](CC(C)C)NC(=O)[C@H](Cc1c[nH]c2ccccc12)NC(=O)[C@H](CCC(=O)O)NC(=O)[C@H](Cc1c[nH]c2ccccc12)NC(=O)[C@@H](NC(=O)[C@H](CCCNC(=N)N)NC(=O)[C@@H](NC(=O)[C@H](Cc1c[nH]c2ccccc12)NC(=O)[C@H](Cc1c[nH]c2ccccc12)NC(=O)[C@H](CC(N)=O)NC(=O)[C@H](CCCNC(=N)N)NC(=O)[C@@H](NC(=O)[C@@H]1CCCN1)[C@@H](C)CC)[C@@H](C)CC)[C@@H](C)CC)C(=O)N[C@@H](CCCNC(=N)N)C(=O)N[C@@H](CCCCN)C(=O)N[C@@H](CCCNC(=N)N)C(=O)N[C@@H](CC(C)C)C(=O)N[C@@H](CCCNC(=N)N)C(=O)N[C@@H](CCC(N)=O)C(=O)N[C@@H](CCCNC(=N)N)C(=O)N[C@@H](CO)C(=O)N1CCC[C@H]1C(=O)N[C@@H](Cc1ccccc1)C(=O)N[C@@H](Cc1ccc(O)cc1)C(=O)N[C@H](C(=O)N[C@@H](CCCNC(=N)N)C(=O)NCC(=O)N[C@@H](Cc1c[nH]cn1)C(=O)N[C@@H](CC(C)C)C(=O)N[C@@H](CC(N)=O)C(=O)N[C@H](C(=O)N[C@H](C(=O)N[C@@H](CO)C(=O)N[C@H](C(=O)N1CCC[C@H]1C(=O)N[C@@H](CCC(N)=O)C(=O)N1CCC[C@H]1C(=O)O)[C@@H](C)O)[C@@H](C)O)C(C)C)C(C)C [CATH-B1] (H-PIRNWWIRIWEWLNGIRKRLRQRSPFYVRGHLNVTSTPQP-OH)	> 40	> 40	> 40	> 40		

Further lines, with some results ahead:

MIC (anti-SS2 activity) [1] [µM]	Structure (SMILES)	MBC (anti-SS2 activity) [1] [µM]	MBC toward SC19 (SS2 strain SC19) [µM]	MBC toward P1/7 (SS2 strain P1/7) [µM]	MIC toward SC19 (SS2 strain SC19; [2]) [µM]	MIC toward P1/7 (SS2 strain P1/7; [2]) [µM]
> 40	CC[C@H](C)[C@H](NC(=O)[C@H](CCCNC(=N)N)NC(=O)[C@@H]1CCCN1C(=O)[C@@H]1CCCN1C(=O)[C@H](CC(C)C)NC(=O)[C@H](CCCNC(=N)N)NC(=O)[C@@H]1CCCN1C(=O)[C@@H]1CCCN1C(=O)[C@H](Cc1ccccc1)NC(=O)[C@H](Cc1ccccc1)NC(=O)[C@@H]1CCCN1C(=O)[C@@H]1CCCN1C(=O)[C@@H]1CCCN1C(=O)[C@H](CCCNC(=N)N)NC(=O)[C@@H]1CCCN1C(=O)[C@H](CCCNC(=N)N)NC(=O)[C@@H]1CCCN1C(=O)[C@H](CC(C)C)NC(=O)[C@H](Cc1ccc(O)cc1)NC(=O)[C@@H]1CCCN1C(=O)[C@@H]1CCCN1C(=O)[C@H](CCCNC(=N)N)NC(=O)[C@@H]1CCCN1C(=O)[C@H](CCCNC(=N)N)NC(=O)[C@H](CCCNC(=N)N)NC(=O)[C@@H](N)CCCNC(=N)N)C(=O)N1CCC[C@H]1C(=O)N1CCC[C@H]1C(=O)NCC(=O)N[C@@H](Cc1ccccc1)C(=O)N1CCC[C@H]1C(=O)N1CCC[C@H]1C(=O)N[C@@H](CCCNC(=N)N)C(=O)N[C@@H](Cc1ccccc1)C(=O)N1CCC[C@H]1C(=O)N1CCC[C@H]1C(=O)N[C@@H](CCCNC(=N)N)C(=O)N[C@@H](Cc1ccccc1)C(=O)N1CCC[C@H]1C(=O)O [PR-39] (H-RRRPRPPYLPRPRPPPFFPPRLPPRIPPGFPPRFPPRFP-OH)	> 40	> 40	> 40		
> 40	CC[C@H](C)[C@H](NC(=O)[C@H](CCCCN)NC(=O)[C@H](CCCCN)NC(=O)[C@H](CC(C)C)NC(=O)[C@H](CCCNC(=N)N)NC(=O)[C@H](CCCCN)NC(=O)[C@H](CCCNC(=N)N)NC(=O)[C@@H](NC(=O)[C@H](CCCCN)NC(=O)[C@H](CCCCN)NC(=O)[C@H](CCCNC(=N)N)NC(=O)[C@H](CC(C)C)NC(=O)[C@H](CCCNC(=N)N)NC(=O)[C@H](CCCNC(=N)N)NC(=O)[C@H](Cc1ccccc1)NC(=O)[C@H](CCCNC(=N)N)NC(=O)CN)[C@@H](C)O)C(=O)NCC(=O)N[C@@H](CCCCN)C(=O)N[C@H](C(=O)N[C@@H](CC(C)C)C(=O)N[C@@H](CCCCN)C(=O)N[C@@H](Cc1c[nH]c2ccccc12)C(=O)N[C@H](C(=O)N1CCC[C@H]1C(=O)N1CCC[C@H]1C(=O)N[C@H](C(=O)N[C@H](C(=O)NCC(=O)N[C@@H](CO)C(=O)N[C@H](C(=O)N1CCC[C@H]1C(=O)N[C@@H](CC(C)C)C(=O)NCC(=O)N[C@@H](CS)C(=O)NCC(=O)O)[C@@H](C)CC)C(C)C)[C@@H](C)CC)[C@@H](C)CC)C(C)C [PMAP-36] (H-GRFRRLRKKTRKRLKKIGKVLKWIPPIVGSIPLGCG-OH)	> 40	40 (≈ 166 µg/mL)	> 40		
